Data as given in patent US20240391931A1 (Bristol-Myers Squibb Company, priority 2021, published 2024).
pEC50: −log10 of the molar value.

Biological target: HER2YVMA (Homo sapiens, UniProt P04626, INS775YVMA)
Assay: HER2 signaling (pHER2) in Hek293-HER2YVMA cells
Assay type: cell-based
Set-up: expressed in transfected cells; host or cells: HEK293 (pool), Ba/F3 (clones), BEAS2B (clones); lentiviral vector pCDH-CMV-MCS-EF1-Neo
Details: 1.5 hr compound, 1% FBS, read-out: HEKYVMA pHER2 EC50
How it was run: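 Lentivirally transduced HER2YVMA lines (HEK293 pool; BEAS2B clone) treated 1.5 h at 37 °C in 1% FBS medium with compound at 0.0005–1.1 μM. Lysates read by MSD immunoassay for pHER2 (Tyr1248) normalized to total HER2, as % DMSO control; EC50 from variable-slope sigmoidal fit.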

HER2YVMA, sequence (P04626 with tags, fused parts or gaps INS775YVMA): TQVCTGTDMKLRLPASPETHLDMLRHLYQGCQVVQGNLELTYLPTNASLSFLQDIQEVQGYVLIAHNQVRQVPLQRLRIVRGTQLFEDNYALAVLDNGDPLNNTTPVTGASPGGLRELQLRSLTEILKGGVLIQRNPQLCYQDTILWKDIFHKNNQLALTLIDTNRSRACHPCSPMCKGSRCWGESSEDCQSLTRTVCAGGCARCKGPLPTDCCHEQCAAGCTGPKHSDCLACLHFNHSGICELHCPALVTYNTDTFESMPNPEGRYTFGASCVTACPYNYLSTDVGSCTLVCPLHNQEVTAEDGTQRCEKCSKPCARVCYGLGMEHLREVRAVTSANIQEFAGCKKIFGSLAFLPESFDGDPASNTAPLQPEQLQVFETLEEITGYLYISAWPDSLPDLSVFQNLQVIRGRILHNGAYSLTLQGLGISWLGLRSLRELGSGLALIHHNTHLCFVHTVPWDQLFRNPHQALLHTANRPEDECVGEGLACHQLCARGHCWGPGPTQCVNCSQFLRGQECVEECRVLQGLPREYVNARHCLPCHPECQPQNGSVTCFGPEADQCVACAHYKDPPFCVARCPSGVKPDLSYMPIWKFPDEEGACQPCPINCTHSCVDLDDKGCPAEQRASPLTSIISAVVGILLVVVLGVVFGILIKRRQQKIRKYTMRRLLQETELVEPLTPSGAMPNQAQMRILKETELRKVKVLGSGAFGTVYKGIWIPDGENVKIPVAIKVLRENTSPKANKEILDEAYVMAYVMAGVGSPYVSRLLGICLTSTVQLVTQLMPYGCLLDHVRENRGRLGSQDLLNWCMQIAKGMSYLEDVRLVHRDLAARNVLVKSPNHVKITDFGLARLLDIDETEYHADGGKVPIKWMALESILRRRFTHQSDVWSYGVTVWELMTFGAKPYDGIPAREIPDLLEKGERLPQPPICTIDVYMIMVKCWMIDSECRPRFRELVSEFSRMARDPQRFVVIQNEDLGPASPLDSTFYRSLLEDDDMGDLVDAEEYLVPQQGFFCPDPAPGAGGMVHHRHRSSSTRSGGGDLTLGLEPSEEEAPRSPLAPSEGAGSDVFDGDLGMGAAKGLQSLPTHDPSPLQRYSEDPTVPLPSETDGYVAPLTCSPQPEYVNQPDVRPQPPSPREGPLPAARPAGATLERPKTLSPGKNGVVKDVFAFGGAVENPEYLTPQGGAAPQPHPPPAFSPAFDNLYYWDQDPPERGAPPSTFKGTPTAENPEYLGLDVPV

SMILES | pEC50
Cc1ccc(Oc2ccc(Nc3ncnc4sc5c(c34)CCN(C(=O)/C=C/CN3CCCOCC3)C5)cc2C)cn1 [Compound 42] | > 7.00
Cc1ccc(Oc2ccc(Nc3ncnc4sc5c(c34)CCN(C(=O)/C=C/CN3CC(O)CO3)C5)cc2C)cn1 (stereo not shown) [Compound 43] | 6.00 to 6.46
Cc1ccc(Oc2ccc(Nc3ncnc4sc5c(c34)CCN(C(=O)/C=C/CN3C4CCC3CC4)C5)cc2C)cn1 [Compound 44] | > 7.00
Cc1ccc(Oc2ccc(Nc3ncnc4sc5c(c34)CCN(C(=O)/C=C/CNCCS(C)(=O)=O)C5)cc2C)cn1 [Compound 45] | > 7.00
CCN1CCN(C/C=C/C(=O)N2CCc3c(sc4ncnc(Nc5ccc(Oc6ccc(C)nc6)c(C)c5)c34)C2)CC1 [Compound 46] | > 7.00
Cc1ccc(Oc2ccc(Nc3ncnc4sc5c(c34)CCN(C(=O)/C=C/CNC3CCOC3)C5)cc2C)cn1 (stereo not shown) [Compound 47] | > 7.00
Cc1ccc(Oc2ccc(Nc3ncnc4sc5c(c34)CCN(C(=O)/C=C/CNCC3CN(C)CCO3)C5)cc2C)cn1 (stereo not shown) [Compound 48] | > 7.00
Cc1ccc(Oc2ccc(Nc3ncnc4sc5c(c34)CCN(C(=O)/C=C/CNCc3cc(C)n[nH]3)C5)cc2C)cn1 [Compound 49] | > 7.00
CC(=O)N1CCN(C/C=C/C(=O)N2CCc3c(sc4ncnc(Nc5ccc(Oc6ccc(C)nc6)c(C)c5)c34)C2)CC1 [Compound 51] | 6.46 to 7.00
Cc1ccc(Oc2ccc(Nc3ncnc4sc5c(c34)CCN(C(=O)/C=C/CNCc3ccsc3)C5)cc2C)cn1 [Compound 52] | > 7.00
Cc1ccc(Oc2ccc(Nc3ncnc4sc5c(c34)CCN(C(=O)/C=C/CN3CC(O)C3)C5)cc2C)cn1 [Compound 53] | 6.46 to 7.00
Cc1ccc(Oc2ccc(Nc3ncnc4sc5c(c34)CCN(C(=O)/C=C/CNC3CCC3)C5)cc2C)cn1 [Compound 54] | > 7.00
Cc1ccc(Oc2ccc(Nc3ncnc4sc5c(c34)CCN(C(=O)/C=C/CN3CC=CCC3)C5)cc2C)cn1 [Compound 55] | > 7.00
CON(C)C/C=C/C(=O)N1CCc2c(sc3ncnc(Nc4ccc(Oc5ccc(C)nc5)c(C)c4)c23)C1 [Compound 56] | 6.00 to 6.46
Cc1ccc(Oc2ccc(Nc3ncnc4sc5c(c34)CCN(C(=O)/C=C/CN3CC4(C3)CS(=O)(=O)C4)C5)cc2C)cn1 [Compound 57] | > 7.00
Cc1ccc(Oc2ccc(Nc3ncnc4sc5c(c34)CCN(C(=O)/C=C/CN3CCN4C(=O)CCC4C3)C5)cc2C)cn1 (stereo not shown) [Compound 58] | 6.00 to 6.46
COCCN1CCN(C/C=C/C(=O)N2CCc3c(sc4ncnc(Nc5ccc(Oc6ccc(C)nc6)c(C)c5)c34)C2)CC1 [Compound 59] | > 7.00
Cc1ccc(Oc2ccc(Nc3ncnc4sc5c(c34)CCN(C(=O)/C=C/CN3CCn4cc(C(F)(F)F)nc4C3)C5)cc2C)cn1 [Compound 61] | 6.00 to 6.46
Cc1ccc(Oc2ccc(Nc3ncnc4sc5c(c34)CCN(C(=O)/C=C/CN3CCC(n4ccnc4)CC3)C5)cc2C)cn1 [Compound 62] | 6.46 to 7.00
Cc1cc(Nc2ncnc3sc4c(c23)CCN(C(=O)/C=C/CN(C)C)C4)ccc1Oc1cccc(B(O)O)c1 [Compound 64, (E)-(3-(4-((7-(4-(dimethylamino)but-2-enoyl)-5,6,7,8-tetrahydropyrido[4′,3′:4,5]thieno[2,3-d]pyrimidin-4-yl)amino)-2-methylphenoxy)phenyl)boronic acid] | > 7.00
Cc1ccc(Oc2ccc(Nc3ncnc4sc5c(c34)CCN(C(=O)/C=C/CNCCO)C5)cc2C)cn1 [Compound 65] | > 7.00
Cc1ccc(Oc2ccc(Nc3ncnc4sc5c(c34)CCN(C(=O)/C=C/CN3C[C@H]4CC[C@@H](C3)O4)C5)cc2C)cn1 [Compound 66] | > 7.00
Cc1ccc(Oc2ccc(Nc3ncnc4sc5c(c34)CCN(C(=O)/C=C/CN3CCC4(CCOC4)C3)C5)cc2C)cn1 (stereo not shown) [Compound 67] | > 7.00
Cc1ccc(Oc2ccc(Nc3ncnc4sc5c(c34)CCN(C(=O)/C=C/CN[C@H]3CC[C@H](OC4CC4)CC3)C5)cc2C)cn1 [Compound 68] | > 7.00
Cc1ccc(Oc2ccc(Nc3ncnc4sc5c(c34)CCN(C(=O)/C=C/CN[C@H]3CC[C@H](OC(F)F)CC3)C5)cc2C)cn1 [Compound 69] | > 7.00
